Source: patent publication US20250346629A1, “USE OF D-ENANTIOMERIC PEPTIDE LIGANDS OF MONOMERIC ALPHA-SYNUCLEIN FOR THE THERAPY OF VARIOUS SYNUCLEINOPATHIES” (PRIAVOID GMBH, priority 2021, published 2025)
Like-named read-outs stand apart in the source and are kept apart here. Square brackets hold non-standard residues; d marks the D form. Peptide text beside a SMILES is read from it.

Legend:
[1] = Solubility of D-peptides in buffer (UV-vis of supernatant after centrifugation); assay type: physicochemical; conditions: different buffers including PBS, aqueous buffer; different buffer conditions including PBS pH 7.4; 1 h at 37° C., 20 800×g centrifugation; read-out: starting concentration up to which the compound remained completely in the supernatant
Text: D-enantiomeric peptides with C-terminal amidation were acquired from CASLO (CASLO, DK) as a lyophilized chloride salt powder having a purity of >95%.

[2] = target: α-syn (Homo sapiens, UniProt P37840, A140C); assay: MST measurement of SVD-1 and α-syn (FIG. 2, α-syn 140C-C2-Alexa 647); assay type: binding
Text: 70% LED power; 60% MST power.

[3] = target: WT alpha-synuclein (Homo sapiens, UniProt P37840); assay: Multicycle SPR experiment of WT alpha-synuclein and immobilized SVD-1 (FIG. 3); assay type: binding
Experimental: WT α-syn was injected in a concentration range of […] in PBS, PH 7.4. Regeneration: 2 M Gua-HCl and 0.1% SDS.

[4] = target: α-syn oligomers (Homo sapiens, UniProt P37840); assay: α-syn oligomer elimination, HPLC-SEC of supernatant (FIG. 4); assay type: biochemical; conditions: SVD-1 150 and 250 μM; 5 μM monomer-equivalent oligomers, 3 days, 900 rpm, 37° C.
Text: The samples were centrifuged at 21 000×g and the supernatant was loaded onto an HPLC-SEC column.

[5] = target: α-syn (Homo sapiens, UniProt P37840); assay: Gradient centrifugation of α-syn aggregation samples (FIG. 6); assay type: biochemical; conditions: equimolar SVD-1, 9 days, 37° C., no shaking, Iodixanol gradient
Experimental: No shaking, no glass beads, at 37° C. After 9 days, the triplet samples were combined together and 100 μl was added to an Iodixanol gradient (5-50% (w/v)). 15 fractions, each of 140 μl were analyzed by means of RP-HPLC using a Zorbax 300 SB-C8 column and integrated to α-syn peaks.

[6] = target: full-length α-syn (Homo sapiens, UniProt P37840); assay: MST measurement of fluorophore-labeled peptides with full-length α-syn (FIG. 10); assay type: binding; conditions: 100 nM labeled peptide, PBS pH 7.4, 25° C., individual measurement
Experimental: The peptides were fluorescence labeled by means of cysteine-maleimide coupling. SVD-1_Cys and SVD 1a_Cys were fluorescence labeled at the C-terminus with a fivefold or tenfold molar excess of TCEP and CF633-PEG2-maleimide (Sigma-Aldrich, USA). The labeling reaction was carried out in 25 mM NaPi, PH 7.0, for 2 h at RT. The labeled peptides were purified at 25° C. using an Agilent 1260 Infinity II System and a C-18 RP-HPLC column (Zorbax 300 SB-C8/SB-C 18, Agilent, USA). The mobile phases consisted of A: water+0.1% TFA, and B: acetonitrile+0.1% TFA. The fluorescence-labeled peptides and proteins were eluted with a gradient of 5-40% (v/v) B in 30 min. The fluorescence-labeled products were fractionated using the absorption wavelength of the fluorophore (CF633: 633 nm) and the pooled samples were subsequently lyophilized and redissolved in the appropriate buffer. The protein concentrations were determined by means of UV-vis and the fluorescence-labeled samples were stored at −20° C.
The experiments for microscale thermophoresis (MST) were carried out using a Monolith NT.115 device (NanoTemper Technologies GmbH, GE). Fluorescence-labeled peptides were diluted in PBS, PH 7.4 to a final concentration of 100 nM. […] The data was evaluated with the thermophoresis effect, using the NT analysis software (version 1.5.41) supplied by the manufacturer. […]

[7] = tested on: PC12 cells; assay type: cell-based; conditions: rat, 24 h, 15 μM
Experimental: PC12 cells (Leibniz-Institut DSMZ, GE) were cultured at 37° C. on a collagen A-coated (Biochrom GmbH, GE) tissue culture flask in RPMI 1640 medium, supplemented with 5% fetal calf serum and 10% horse serum in an atmosphere humidified to 95% with 5% CO2. 10 000 cells per well in a volume of 100 μl were seeded into collagen A-coated 96-well plates (Thermo Fisher Scientific, USA and incubated for 24 hours at 37° C. and 300 rpm in a thermocycler.
Furthermore, 15 μM of the peptides alone, cell media, buffer without peptide and 0.1% Triton X-100 (cytotoxic compound) were used as controls. After further incubation in a 95% humidified atmosphere with 5% CO2 at 37° C. for 24 hours, the viability of the cells was measured using the Cell Proliferation Kit I (MTT) (Roche Applied Science, CH), following the manufacturer's protocol.
The MTT-formazan product was quantified by measuring the absorbance at 570 nm, corrected by subtracting the absorbance at 660 nm, in a FluoroStar Optima plate reader (BMG labtech, GE). All results were normalized to untreated cells grown only in medium. The significance test was carried out by one-way ANOVA with Bonferroni post-hoc analysis (OriginPro 2020, OriginLab, USA; n=4).
The significance test was carried out by one-way ANOVA with Bonferroni post-hoc analysis: […], ***p≤0.01. The means are stated±SD (n=4).

[8] = target: WT α-syn (Homo sapiens, UniProt P37840); assay: Single cycle SPR experiment of WT α-syn on CM5-immobilized peptides (FIG. 8); conditions: 1:1 binding model fit, CM5 chip, PBS pH 7.4, 0.005% Tween-20
Experimental: Each peptide was immobilized on a CM5 sensor chip surface. WT α-syn was injected in a concentration range of 30-500 nM in PBS, PH 7.4, 0.005% (v/v) Tween-20. Regeneration was carried out after every cycle with 2 M Gua-HCl for 2×30 sec. The KDs were determined with a 1:1 binding model fit, as follows: SVD-1a: 15.7 nM; SVD-6a: 14.0 nM; SVD-10a: 12.3 nM.

[9] = tested on: αSynA53T-YFP cells (HEK293T); assay: Cell assay for seeded α-synuclein aggregation (FIG. 19); assay type: cell-based, human
Experimental: A construct encoding full-length A53T-mutated human α-syn and fused with YFP at the C-terminus was synthesized and introduced into the pMK-RQ expression vector (GeneArt; Thermo Fisher Scientific, USA). The α-synA53T-YFP construct was sub-cloned using the restriction sites NheI (5′) and NotI (3′) in the vector pIRESpuro3 (Clontech; Takara Bio, JPN). HEK293T cells (American Type Culture Collection) were cultured in high-glucose Dulbecco's Modified Eagle's Medium (DMEM; Sigma-Aldrich, USA) which had 10% fetal calf serum (Sigma-Aldrich, USA), 50 units/ml penicillin, and also 50 μg/ml streptomycin (Sigma-Aldrich, USA) added thereto. The cells were cultured at 37° C. in a humidified atmosphere with 5% CO2.
The cells plated in DMEM were transfected with Lipofectamine 2000 (Invitrogen; Thermo Fisher Scientific, USA). Stable cells were selected in DMEM with 1 μg/ml puromycin (EMD Millipore, USA). Monoclonal cell lines were produced by means of fluorescence-activated cell sorting of a polyclonal cell population in 96-well plates using a MoFlo XDP cell sorter (Beckman Coulter, USA). […]
The plates were then incubated at 37° C. in a humidified atmosphere with 5% CO2. On the third day, the cells were imaged in an IN Cell Analyzer 6500HS system (Cytiva, USA) using the blue and green fluorescence channels, and analyzed by the IN Carta Image Analysis software (Cytiva, USA) which had been used to establish an algorithm for identifying intracellular aggregates in living cells. Four wells were used for each condition and 16 images were recorded per well and analyzed by a fully-automated algorithm in order to prevent distortions. […]
In order to validate the inhibitory effect of SVD-1a in cells, use was made of the α-synA53T-YFP cell system which stably expresses human α-syn with the familial A53T mutation, fused with YFP, in HEK293T cells, and the fluorescence-based detection of aggregates makes it possible to clearly show the strongly fluorescent spots within the cells against the background, intracellularly after seeding with PFF oligomers. […] Panels C, F and I show αSynA53T-YFP fluorescence. […]

Work on `CC[C@@H](C)[C@@H](NC(=O)[C@@H](Cc1c[nH]cn1)NC(=O)[C@@H](CCC(=O)O)NC(=O)[C@@H](CCC(N)=O)NC(=O)[C@@H](Cc1c[nH]c2ccccc12)NC(=O)[C@@H](Cc1ccc(O)cc1)NC(=O)[C@H](NC(=O)[C@@H](CCC(=O)O)NC(=O)[C@@H](Cc1c[nH]cn1)NC(=O)[C@H](NC(=O)[C@H]1CCCN1C(=O)[C@@H](CCSC)NC(=O)[C@H](N)CCCCN)[C@H](C)O)[C@H](C)O)C(=O)N[C@H](Cc1c[nH]c2ccccc12)C(=O)N[C@H](Cc1c[nH]cn1)C(=O)N[C@H](C)C(N)=O` [SVD-1, kmpthetywqehiwha] (H-[dK][dM][dP][dT][dH][dE][dT][dY][dW][dQ][dE][dH][dI][dW][dH][dA]-NH2) yielded a solubility at 1 h [1] of no less than 1000 µM, a Kd [2] of 0.055 µM and a Kd ([3]; heterogeneous ligand adjustment, PBS pH 7.4, read-out: KD1) of 0.0125 µM. The Kd ([3]; read-out: KD2, heterogeneous ligand adjustment, PBS pH 7.4) was 2 µM, the “α-syn oligomer in the supernatant” value [4] was “not possible to detect any α-syn oligomer in the supernatant” and the “fibril formation (fractions F6-F12)” value [5] was “No fibril formation (F6-F12) was observed”. For the same compound, the Kd [6] was 0.17 µM and the “cells saved (cell viability)” value [7] was 89%.
Work on `CC(C)C[C@@H](NC(=O)[C@H]1CCCN1C(=O)[C@@H](CCC(N)=O)NC(=O)[C@@H](CCCNC(=N)N)NC(=O)[C@@H](Cc1c[nH]c2ccccc12)NC(=O)[C@@H](CC(=O)O)NC(=O)[C@H](N)Cc1ccc(O)cc1)C(=O)N[C@H](CO)C(=O)N[C@H](C)C(=O)N[C@H](CO)C(=O)N[C@H](CCCNC(=N)N)C(=O)N[C@H](Cc1ccccc1)C(=O)N[C@H](CC(C)C)C(=O)N[C@H](C)C(=O)N1CCC[C@@H]1C(=O)N[C@H](Cc1c[nH]c2ccccc12)C(=O)N[C@H](CCCNC(=N)N)C(=O)N[C@H](CCCNC(=N)N)C(=O)N[C@H](CCCNC(=N)N)C(=O)N[C@H](CCCNC(=N)N)C(=O)N[C@H](CCCNC(=N)N)C(N)=O` [SVD-6a, ydwrqplsasrflapwrrrrr] (H-[dY][dD][dW][dR][dQ][dP][dL][dS][dA][dS][dR][dF][dL][dA][dP][dW][dR][dR][dR][dR][dR]-NH2) yielded a Kd [8] of 0.014 µM.
`C[C@H](O)[C@@H](NC(=O)[C@@H](CC(N)=O)NC(=O)[C@@H](Cc1c[nH]c2ccccc12)NC(=O)[C@@H](Cc1ccc(O)cc1)NC(=O)[C@H]1CCCN1C(=O)[C@H]1CCCN1C(=O)[C@@H](CC(N)=O)NC(=O)[C@@H](Cc1c[nH]c2ccccc12)NC(=O)[C@@H](CCC(N)=O)NC(=O)[C@@H](CCC(N)=O)NC(=O)[C@@H](Cc1c[nH]c2ccccc12)NC(=O)[C@@H](Cc1c[nH]cn1)NC(=O)[C@@H](CO)NC(=O)[C@H](N)CO)C(=O)N[C@H](CC(=O)O)C(=O)N[C@H](CO)C(=O)N[C@H](CCCNC(=N)N)C(=O)N[C@H](CCCNC(=N)N)C(=O)N[C@H](CCCNC(=N)N)C(=O)N[C@H](CCCNC(=N)N)C(=O)N[C@H](CCCNC(=N)N)C(N)=O` [SVD-10a, sshwqqwnppywntdsrrrrr] (H-[dS][dS][dH][dW][dQ][dQ][dW][dN][dP][dP][dY][dW][dN][dT][dD][dS][dR][dR][dR][dR][dR]-NH2) gave a Kd [8] of 0.0123 µM.
For kgvgnleyqlwalegk-NH2, the cells with aggregation ([9]; 25 μM peptide, seeded with soluble α-syn-PFF oligomers, third day) was 85% and the “inhibition of α-syn aggregation in cells” value ([9]; seeded with 30 nM PFF oligomers, day 3, two-stage transfection) was “not”.
